In ChEMBL document CHEMBL3813616, “Discovery of novel 7-azaindoles as PDK1 inhibitors” (Bioorg Med Chem Lett, 2016):
Converted amounts (≈) assume the structure as drawn.

Assays:
Homo sapiens = species on record: Homo sapiens; test: Selectivity ratio of IC50 for PI3K alpha (unknown origin) to IC50 for human His6-tagged PDK1
[1] = Intrinsic clearance in mouse liver microsomes; format: ADME; conditions: read-out: CLH
[2] = Efflux ratio of permeability from basolateral to apical over apical to basolateral side in human Caco2 cells; format: ADME, cell-based; conditions: Caco-2
[3] = molecular target: T1, Phosphatidylinositol 4,5-bisphosphate 3-kinase catalytic subunit delta isoform (Homo sapiens, UniProt O00329); test: Inhibition of PI3K delta (unknown origin)
T1 sequence (O00329 whole entry): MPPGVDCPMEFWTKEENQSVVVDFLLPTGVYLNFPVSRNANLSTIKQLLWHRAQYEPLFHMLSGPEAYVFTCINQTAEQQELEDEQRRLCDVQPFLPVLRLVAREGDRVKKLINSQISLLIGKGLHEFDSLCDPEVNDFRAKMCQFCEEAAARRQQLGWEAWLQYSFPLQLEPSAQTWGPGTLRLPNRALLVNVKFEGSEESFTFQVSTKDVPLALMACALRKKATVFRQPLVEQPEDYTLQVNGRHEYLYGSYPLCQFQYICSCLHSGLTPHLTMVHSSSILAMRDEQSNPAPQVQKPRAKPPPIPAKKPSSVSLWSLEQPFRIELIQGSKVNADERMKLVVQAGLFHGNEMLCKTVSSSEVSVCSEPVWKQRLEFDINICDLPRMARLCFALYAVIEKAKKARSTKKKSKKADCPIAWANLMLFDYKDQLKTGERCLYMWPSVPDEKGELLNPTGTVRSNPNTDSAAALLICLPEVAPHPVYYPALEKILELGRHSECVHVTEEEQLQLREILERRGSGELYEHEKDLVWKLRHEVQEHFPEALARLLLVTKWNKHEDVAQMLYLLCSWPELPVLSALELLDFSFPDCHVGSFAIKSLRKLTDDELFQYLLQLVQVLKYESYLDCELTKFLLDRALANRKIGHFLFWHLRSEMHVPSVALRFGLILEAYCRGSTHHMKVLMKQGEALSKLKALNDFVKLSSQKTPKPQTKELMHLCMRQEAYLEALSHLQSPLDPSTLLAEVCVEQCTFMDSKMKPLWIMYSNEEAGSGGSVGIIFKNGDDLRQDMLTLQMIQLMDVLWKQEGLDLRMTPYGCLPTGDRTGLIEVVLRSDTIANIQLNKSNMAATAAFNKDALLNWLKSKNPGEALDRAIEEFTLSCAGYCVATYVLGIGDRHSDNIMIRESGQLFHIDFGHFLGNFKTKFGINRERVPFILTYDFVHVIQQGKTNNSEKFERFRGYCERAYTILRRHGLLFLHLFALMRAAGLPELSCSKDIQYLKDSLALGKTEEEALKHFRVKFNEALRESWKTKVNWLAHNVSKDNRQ

[4] = molecular target: T2, 3-phosphoinositide-dependent protein kinase 1 (Homo sapiens, UniProt O15530); test: Inhibition of human His6-tagged PDK1 using biotinylated PDKtide as substrate after 60 mins by topcount method
T2 sequence (O15530 whole entry): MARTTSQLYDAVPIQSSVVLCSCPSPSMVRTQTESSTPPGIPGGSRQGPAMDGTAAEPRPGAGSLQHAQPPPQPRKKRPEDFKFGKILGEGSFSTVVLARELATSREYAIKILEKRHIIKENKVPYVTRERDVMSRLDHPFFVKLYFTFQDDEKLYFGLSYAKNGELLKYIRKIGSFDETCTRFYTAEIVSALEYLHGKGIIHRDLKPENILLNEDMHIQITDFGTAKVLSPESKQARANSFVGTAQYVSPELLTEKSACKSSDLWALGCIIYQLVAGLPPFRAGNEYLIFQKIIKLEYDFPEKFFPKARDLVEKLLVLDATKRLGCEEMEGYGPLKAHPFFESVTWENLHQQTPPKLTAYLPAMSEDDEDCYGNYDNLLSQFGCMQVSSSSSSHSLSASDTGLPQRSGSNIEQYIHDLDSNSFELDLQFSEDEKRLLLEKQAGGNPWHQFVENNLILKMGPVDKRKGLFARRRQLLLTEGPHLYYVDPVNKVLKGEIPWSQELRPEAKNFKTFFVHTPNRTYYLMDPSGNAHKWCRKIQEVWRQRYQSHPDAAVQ

[5] = Permeability across apical to basolateral side in human Caco2 cells; format: ADME, cell-based; conditions: Caco-2
[6] = Intrinsic clearance in human liver microsomes; format: ADME; conditions: read-out: CLH
[7] = molecular target: Phosphatidylinositol 4,5-bisphosphate 3-kinase catalytic subunit gamma isoform (Homo sapiens, UniProt P48736); test: Inhibition of PI3K gamma (unknown origin)
Phosphatidylinositol 4,5-bisphosphate 3-kinase catalytic subunit gamma isoform, sequence (P48736 whole entry, canonical isoform): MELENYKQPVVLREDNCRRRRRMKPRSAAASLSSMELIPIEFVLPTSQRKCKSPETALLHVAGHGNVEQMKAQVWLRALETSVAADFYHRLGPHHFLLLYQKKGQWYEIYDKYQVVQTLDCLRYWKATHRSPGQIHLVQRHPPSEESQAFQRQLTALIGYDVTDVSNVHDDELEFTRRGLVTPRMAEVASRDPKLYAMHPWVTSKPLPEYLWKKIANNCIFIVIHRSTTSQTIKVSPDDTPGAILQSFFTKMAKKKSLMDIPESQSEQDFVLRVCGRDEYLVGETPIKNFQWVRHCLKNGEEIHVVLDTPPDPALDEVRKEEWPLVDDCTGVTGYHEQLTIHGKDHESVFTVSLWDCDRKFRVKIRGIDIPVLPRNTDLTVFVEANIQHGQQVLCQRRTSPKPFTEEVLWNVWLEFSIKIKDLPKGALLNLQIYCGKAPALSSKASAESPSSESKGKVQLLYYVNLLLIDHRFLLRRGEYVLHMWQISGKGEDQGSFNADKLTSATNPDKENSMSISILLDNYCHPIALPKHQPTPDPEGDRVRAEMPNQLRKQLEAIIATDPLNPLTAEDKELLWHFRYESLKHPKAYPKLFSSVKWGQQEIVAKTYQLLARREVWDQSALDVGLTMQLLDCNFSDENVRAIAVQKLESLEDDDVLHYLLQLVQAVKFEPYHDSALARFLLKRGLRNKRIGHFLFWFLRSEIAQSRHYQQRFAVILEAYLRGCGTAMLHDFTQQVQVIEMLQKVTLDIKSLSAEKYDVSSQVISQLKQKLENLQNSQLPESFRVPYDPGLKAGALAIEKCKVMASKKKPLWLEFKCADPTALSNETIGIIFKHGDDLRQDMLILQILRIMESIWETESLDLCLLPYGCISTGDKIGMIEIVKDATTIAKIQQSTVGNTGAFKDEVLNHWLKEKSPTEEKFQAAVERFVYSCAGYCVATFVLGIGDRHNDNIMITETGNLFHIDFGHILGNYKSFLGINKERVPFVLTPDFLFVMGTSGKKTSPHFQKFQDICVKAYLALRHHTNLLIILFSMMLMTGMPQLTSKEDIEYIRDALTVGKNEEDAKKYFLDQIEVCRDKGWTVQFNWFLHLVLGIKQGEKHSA

[8] = molecular target: T3, Phosphatidylinositol 4,5-bisphosphate 3-kinase catalytic subunit alpha isoform (Homo sapiens, UniProt P42336); test: Inhibition of PI3K alpha (unknown origin)
T3 sequence (P42336 whole entry, canonical isoform): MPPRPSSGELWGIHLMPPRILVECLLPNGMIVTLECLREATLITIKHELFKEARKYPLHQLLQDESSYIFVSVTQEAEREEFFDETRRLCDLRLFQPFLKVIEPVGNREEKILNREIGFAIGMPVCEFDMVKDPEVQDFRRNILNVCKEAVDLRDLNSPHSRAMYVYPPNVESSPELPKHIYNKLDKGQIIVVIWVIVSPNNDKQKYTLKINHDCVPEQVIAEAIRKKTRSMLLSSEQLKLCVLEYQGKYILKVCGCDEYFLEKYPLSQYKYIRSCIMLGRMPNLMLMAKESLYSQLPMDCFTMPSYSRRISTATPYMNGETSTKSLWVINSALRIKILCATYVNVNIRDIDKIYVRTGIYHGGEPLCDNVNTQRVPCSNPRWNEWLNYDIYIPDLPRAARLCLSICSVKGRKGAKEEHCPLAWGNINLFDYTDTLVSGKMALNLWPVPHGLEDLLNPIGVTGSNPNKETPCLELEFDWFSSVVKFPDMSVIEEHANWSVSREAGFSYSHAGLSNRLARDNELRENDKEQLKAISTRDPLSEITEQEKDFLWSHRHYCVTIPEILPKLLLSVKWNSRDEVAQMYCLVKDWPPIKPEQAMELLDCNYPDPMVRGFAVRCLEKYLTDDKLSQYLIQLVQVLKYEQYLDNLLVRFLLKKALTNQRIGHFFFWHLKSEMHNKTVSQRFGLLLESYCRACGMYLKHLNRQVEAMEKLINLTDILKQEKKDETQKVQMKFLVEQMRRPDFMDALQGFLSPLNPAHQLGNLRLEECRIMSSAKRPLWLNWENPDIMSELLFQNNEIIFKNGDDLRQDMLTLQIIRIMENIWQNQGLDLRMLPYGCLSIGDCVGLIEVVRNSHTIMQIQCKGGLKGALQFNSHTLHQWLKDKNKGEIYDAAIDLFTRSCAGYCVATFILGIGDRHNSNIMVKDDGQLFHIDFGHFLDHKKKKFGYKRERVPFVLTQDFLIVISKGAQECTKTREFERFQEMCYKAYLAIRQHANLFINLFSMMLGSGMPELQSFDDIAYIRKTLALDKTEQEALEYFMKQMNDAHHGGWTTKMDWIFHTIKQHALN

[9] = molecular target: T2, 3-phosphoinositide-dependent protein kinase 1; test: Inhibition of PDK1 in human PC3 cells assessed as reduction in AKT Thr308 phosphorylation after 45 mins; format: cell-based, PC-3
[10] = molecular target: Phosphatidylinositol 4,5-bisphosphate 3-kinase catalytic subunit beta isoform (Homo sapiens, UniProt P42338); test: Inhibition of PI3K beta (unknown origin)
Phosphatidylinositol 4,5-bisphosphate 3-kinase catalytic subunit beta isoform, sequence (P42338 whole entry, canonical isoform): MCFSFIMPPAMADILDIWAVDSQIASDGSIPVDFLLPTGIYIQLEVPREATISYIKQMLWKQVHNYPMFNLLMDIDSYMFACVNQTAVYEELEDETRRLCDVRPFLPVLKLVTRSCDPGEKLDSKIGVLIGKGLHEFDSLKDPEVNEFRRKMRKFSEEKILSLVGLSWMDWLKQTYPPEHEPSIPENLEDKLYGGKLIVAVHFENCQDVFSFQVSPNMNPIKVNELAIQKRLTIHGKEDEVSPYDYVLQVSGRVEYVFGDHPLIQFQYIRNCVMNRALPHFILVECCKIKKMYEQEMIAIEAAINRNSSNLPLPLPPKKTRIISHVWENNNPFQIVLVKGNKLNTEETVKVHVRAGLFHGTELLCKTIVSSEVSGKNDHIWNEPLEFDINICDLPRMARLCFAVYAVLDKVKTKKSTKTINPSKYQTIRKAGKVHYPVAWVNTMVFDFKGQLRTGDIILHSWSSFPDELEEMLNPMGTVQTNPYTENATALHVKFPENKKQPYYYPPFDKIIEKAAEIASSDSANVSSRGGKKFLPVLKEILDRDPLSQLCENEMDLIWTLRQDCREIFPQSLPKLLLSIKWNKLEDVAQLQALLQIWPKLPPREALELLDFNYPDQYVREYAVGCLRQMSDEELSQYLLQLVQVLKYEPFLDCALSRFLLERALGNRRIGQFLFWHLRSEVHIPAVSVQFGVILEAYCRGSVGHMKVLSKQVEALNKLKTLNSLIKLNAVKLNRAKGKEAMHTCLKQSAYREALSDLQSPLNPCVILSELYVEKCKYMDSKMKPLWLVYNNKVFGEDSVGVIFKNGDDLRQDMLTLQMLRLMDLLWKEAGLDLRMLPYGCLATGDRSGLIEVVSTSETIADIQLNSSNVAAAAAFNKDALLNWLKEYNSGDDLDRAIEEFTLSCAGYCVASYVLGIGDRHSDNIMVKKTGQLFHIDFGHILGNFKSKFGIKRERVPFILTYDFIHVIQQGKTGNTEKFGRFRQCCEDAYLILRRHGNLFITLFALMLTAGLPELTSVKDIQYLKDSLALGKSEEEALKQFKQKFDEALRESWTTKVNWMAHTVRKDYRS

[11] = molecular target: T3, Phosphatidylinositol 4,5-bisphosphate 3-kinase catalytic subunit alpha isoform; test: Inhibition of PI3K alpha (unknown origin) at 10 uM
[12] = Solubility of the compound; format: physicochemical
[13] = molecular target: T2, 3-phosphoinositide-dependent protein kinase 1; test: Inhibition of human PDK1

Structure (SMILES) | IC50 [4] [µM] | IC50 [9] [µM] | also measured
CCc1cc(-c2c[nH]c3ncc(-c4cnn(CCN(C)C)c4)cc23)nc(N)n1 | 0.082 | 14 | Ratio IC50 (Homo sapiens): 48; microsomal CLint [1]: 39 µL/min/mg; Ratio [2]: 2.3; IC50 [3]: > 10 µM; Papp A→B [5]: 7.3 ×10⁻⁶ cm/s; microsomal CLint [6]: < 10 µL/min/mg; IC50 [7]: > 10 µM; IC50 [8]: 3.9 µM; IC50 [10]: > 30 µM
CCc1cc(-c2c[nH]c3ncc(-c4c(C)nn(C)c4C)cc23)nc(N)n1 | 2.7 | > 30 | 
CCc1cc(-c2c[nH]c3ncc(-c4ccccc4)cc23)nc(N)n1 | 3.5 | > 30 | 
CCc1cc(-c2c[nH]c3ncc(-c4ccnn4C)cc23)nc(N)n1 | 2.4 | > 30 | 
CCc1cc(-c2c[nH]c3ncc(-c4cnn(CC(C)C)c4)cc23)nc(N)n1 | 0.11 | 9.6 | Ratio IC50 (Homo sapiens): 42; microsomal CLint [1]: 67 µL/min/mg; Ratio [2]: 0.6; IC50 [3]: > 10 µM; Papp A→B [5]: 27 ×10⁻⁶ cm/s; microsomal CLint [6]: > 55 µL/min/mg; IC50 [7]: > 10 µM; IC50 [8]: 4.7 µM; IC50 [10]: > 30 µM
CCc1cc(-c2c[nH]c3ncc(-c4cnn(C)c4)cc23)nc(N)n1 | 0.085 | 11 | microsomal CLint [1]: 71 µL/min/mg; Ratio [2]: 7.9; IC50 [3]: > 10 µM; Papp A→B [5]: 5.4 ×10⁻⁶ cm/s; inhibition [11]: 78%; microsomal CLint [6]: > 55 µL/min/mg; IC50 [7]: > 10 µM
Cc1nccc(-c2c[nH]c3ncccc23)n1 | > 10 |  | 
CCCc1cc(-c2c[nH]c3ncccc23)nc(N)n1 | 1.8 | > 30 | 
CCc1cc(-c2c[nH]c3nccc(Cl)c23)nc(N)n1 | > 10 |  | 
Nc1nc2c3ccccc3nc(-c3ccccc3)n2n1 | 60 |  | 
CNc1nccc(-c2cn(CCOC)c3ncccc23)n1 | > 10 |  | 
CCc1cc(-c2c[nH]c3ncc(-c4ccc(N)nc4)cc23)nc(N)n1 | 0.17 | 21 | IC50 [3]: > 10 µM; IC50 [7]: > 10 µM; IC50 [8]: > 10 µM; IC50 [10]: > 30 µM
NCCCCc1cc(-c2c[nH]c3ncccc23)nc(N)n1 | 1 | > 30 | 
Nc1ncc(Br)c(-c2c[nH]c3ncccc23)n1 | > 10 |  | 
CCCCCc1cc(-c2c[nH]c3ncccc23)nc(N)n1 | 2.2 | > 30 | 
Nc1ncc(-c2ccccc2)cc1-c1nc2ccccc2[nH]1 | 1.1 |  | 
CCc1cc(-c2c[nH]c3ncccc23)ncn1 | > 10 | > 30 | 
Oc1ccc(-c2n[nH]c3cc(O)ccc23)cc1 | 6.7 |  | 
CCc1cc(-c2c[nH]c3ncc(-c4ccncc4)cc23)nc(N)n1 | 0.45 | > 30 | 
CCc1cc(-c2c[nH]c3ncc(Br)cc23)nc(N)n1 | 0.48 | > 30 | 
CCc1cc(-c2c[nH]c3ncc(-c4ccco4)cc23)nc(N)n1 | 0.12 | 28 | IC50 [3]: > 10 µM; IC50 [7]: > 10 µM; IC50 [8]: > 10 µM
CCc1cc(-c2c[nH]c3ncc(-c4cccnc4)cc23)nc(N)n1 | 0.5 | > 30 | 
CCc1cc(-c2c[nH]c3ncc(-c4cn[nH]c4)cc23)nc(N)n1 | 0.013 | 5.4 | Ratio IC50 (Homo sapiens): 460; microsomal CLint [1]: > 70 µL/min/mg; Ratio [2]: 54.8; IC50 [3]: > 30 µM; Papp A→B [5]: 0.89 ×10⁻⁶ cm/s; microsomal CLint [6]: 52 µL/min/mg; IC50 [7]: 7 µM; IC50 [8]: 6 µM; IC50 [10]: > 30 µM
CCc1cc(-c2c[nH]c3ncccc23)nc(N)n1 | 1.2 | > 30 | 
Nc1nccc(-c2c[nH]c3ccc(Br)cc23)n1 [MERIDIANIN C] | 12 |  | 
NCCCc1cc(-c2c[nH]c3ncccc23)nc(N)n1 | 0.39 | > 30 | solubility [12]: 12 µg/mL (≈ 44.7 µM)
CCc1cc(-c2c[nH]c3ncc(-c4ccn[nH]4)cc23)nc(N)n1 | 0.26 | 26 | IC50 [3]: > 10 µM; IC50 [7]: > 10 µM; IC50 [8]: > 10 µM; IC50 [10]: > 30 µM
COc1ccc2[nH]c(-c3cc[nH]n3)nc2c1 | 93 |  | 
Nc1nccc(-c2c[nH]c3cccc(O)c23)n1 [MERIDIANIN A] |  |  | IC50 [13]: 5.4 µM
CCc1cc(-c2c(C)[nH]c3ncccc23)nc(N)n1 | > 10 |  | 
